Measured values as given in patent US6274333A (Sanofi-Synthelabo, priority 1997, dated 2001).
Like-named read-outs stand apart in the source and are kept apart here.

Legend:
hNT-R2 [1] = target: T1, hNT-R2 (Homo sapiens, UniProt O95665); assay: intracellular Ca^2+ concentration in CHO-2076.62 (hNT-R2) line; assay type: cell-based; conditions: same response in the absence of extracellular calcium
Excerpt: In principle, this increase in the concentration of intracellular calcium ions is due to the release of internal reservoirs and not to the influx of extracellular calcium since the same response was found in the absence of extracellular calcium.

hNT-R2 [2] = target: T1, hNT-R2; assay: inositol phosphate (IP3) production in CHO-2076.62 (hNT-R2) line; assay type: cell-based
Excerpt: The CHO-2076.62 (hNT-R2) line was used to study the signalization mechanisms involved.

rNT-R2 receptor [3] = target: T2, rNT-R2 receptor (Rattus norvegicus, UniProt Q63384); assay: displacement of ^125 I-neurotensin from rNT-R2 expressed in COS cells; assay type: binding
T2 construct: rNT-R2 receptor expressed in COS-3 cells after transfection of the cloned cDNA; expressed in transfected cells; vector pSVL-rNT-R2
T2 sequence (Q63384 1-416): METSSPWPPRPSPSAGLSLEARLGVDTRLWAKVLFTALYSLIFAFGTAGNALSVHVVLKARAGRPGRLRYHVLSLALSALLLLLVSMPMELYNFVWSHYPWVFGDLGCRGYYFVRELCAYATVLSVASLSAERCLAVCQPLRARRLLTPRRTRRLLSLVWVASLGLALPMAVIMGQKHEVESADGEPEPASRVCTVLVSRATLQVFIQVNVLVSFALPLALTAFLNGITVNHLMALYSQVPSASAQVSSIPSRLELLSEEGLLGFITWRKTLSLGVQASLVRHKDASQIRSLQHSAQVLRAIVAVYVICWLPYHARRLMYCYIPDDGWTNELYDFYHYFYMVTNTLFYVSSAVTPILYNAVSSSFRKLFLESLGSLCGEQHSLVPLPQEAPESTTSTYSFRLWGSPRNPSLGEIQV
Protocol: BSA (bovine serum albumin), PMSF (phenylmethylsulphonyl fluoride) and 1,10-phenanthroline are marketed by Sigma. […] Levocabastine was obtained from Janssen Pharmaceutica.
(§1) The pharmacological characterization was carried out using […] cells transfected with pSVL-rNT-R2 recombinant vector. Three days after transfection, the cell monolayers were washed twice with 50 mM Tris-HCl pH 7.5, 0.1% BSA, 0.1% NaN3, 1 mM 1,10-phenanthroline (binding buffer) before binding to the radioligand.
After incubation for one hour at room temperature, the medium was aspirated and the cell monolayers were washed twice with the incubation buffer. Finally, the cells were solubilized with 1 ml of 1N NaOH and the bound radioactivity was evaluated.

[4] = tested on: hypothermia induced by NT; conditions: rats; cited from earlier work
analgesia induced by NT [5] = conditions: rats; cited from earlier work
analgesia induced by NT [6] = conditions: mice; cited from earlier work
[7] = tested on: hypothermia induced by NT; conditions: mice; cited from earlier work
cloned receptor = conditions: cited from earlier work
hNT-R2 [8] = target: T1, hNT-R2; assay: microphysiometry (Cytosensor) with CHO 2076.62 (hNT-R2) cells; assay type: cell-based
Protocol: The microphysiometry experiments were carried out with the Cytosensor Microphysiometer (Molecular Devices, Menlo Park, Calif.). Each chamber of the instrument containing 3×10^5 cells was perfused with DMEM medium (Sigma, St. Louis, Mo.) containing 40 mM NaCl at 37° C. The rate of acidification was measured every 60 seconds (flowrate […]). 15-second injections of agonists were carried out. For the inhibition experiments, cells were exposed to the antagonists for 30 minutes before being perfused with the agonist.

NT-1R = conditions: CHO cells transfected with NT-1R; cited from earlier work
[9] = tested on: release of acetylcholine in rat striatum; conditions: cited from earlier work
type-1 receptor = conditions: cited from earlier work
rotation in mice = conditions: cited from earlier work
HT29 cells = conditions: antagonism of neurotensin effect in vitro, read-out: IC50, formation of IP1 in HT29 cells; cited from earlier work
rNT-R2 receptor [10] = target: T2, rNT-R2 receptor; assay: saturation binding of ^125 I-neurotensin to rNT-R2 expressed in COS cells; conditions: Scatchard analysis
Protocol: BSA (bovine serum albumin), PMSF (phenylmethylsulphonyl fluoride) and 1,10-phenanthroline are marketed by Sigma. The selective, non-peptide antagonist SR 48692 was synthesized by Sanofi Recherche, France. Levocabastine was obtained from Janssen Pharmaceutica.
as §1
Saturation experiments were carried out in 1 ml of binding buffer containing ^125 I-neurotensin over a range from 0.05 to 14.5 nM. After incubation for one hour at room temperature, the medium was aspirated and the cell monolayers were washed twice with the incubation buffer. Finally, the cells were solubilized with 1 ml of 1N NaOH and the bound radioactivity was evaluated. The non-specific binding was defined as being the binding in the presence of a (500-fold) excess of unlabelled ligand and, under these conditions, was less than 1% of the total radioactivity.

[11] = tested on: untransfected cells, or cells transfected with the DNA vector alone; assay: binding of radiolabelled neurotensin to untransfected or vector-transfected COS cells
[12] = 0.2 nM ^125 I-neurotensin, rNT-R2 in COS cells, read-out: IC50 (apparent), competition with ^125 I-neurotensin
[13] = binding with the type-1 receptor

T1 sequence (O95665 whole entry A54V): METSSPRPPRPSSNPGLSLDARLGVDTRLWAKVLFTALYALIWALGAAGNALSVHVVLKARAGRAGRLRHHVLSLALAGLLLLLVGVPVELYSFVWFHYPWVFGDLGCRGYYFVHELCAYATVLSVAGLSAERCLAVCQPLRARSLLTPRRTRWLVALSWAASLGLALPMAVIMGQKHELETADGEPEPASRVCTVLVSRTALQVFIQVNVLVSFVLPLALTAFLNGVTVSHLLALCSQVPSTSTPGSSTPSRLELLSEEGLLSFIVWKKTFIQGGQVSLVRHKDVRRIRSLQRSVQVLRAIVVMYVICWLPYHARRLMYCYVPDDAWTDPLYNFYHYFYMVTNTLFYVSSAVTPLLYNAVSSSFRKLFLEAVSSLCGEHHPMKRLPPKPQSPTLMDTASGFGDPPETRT

**Q.** What does the source list for COc1cccc(OC)c1-c1cc(C(=O)NC2(C(=O)O)C3CC4CC(C3)CC2C4)nn1-c1ccc(C(=O)N(C)CCCN(C)C)cc1C(C)C (centres unmarked) [SR142948]?
**A.** intracellular concentration of Ca^2+ response (hNT-R2 [1]): significant response; increase in IP3 (hNT-R2 [2]): slight and transient (20-second) increase

**Q.** What does the source list for COc1cccc(OC)c1-c1cc(C(=O)NC2(C(=O)O)C3CC4CC(C3)CC2C4)nn1-c1ccnc2cc(Cl)ccc12 (centres unmarked) [SR 48692, {2-[(1-(7-chloro-4-quinolinyl)-5-(2,6-di-methoxyphenyl)pyrazol-3-yl)carbonylamino]tricyclo-(3.3.1.1.3.7)decane-2-carboxylic} acid]?
**A.** IC50 (rNT-R2 receptor [3]; [12]): 22.5 nM; effect on hypothermia induced by NT [4]: insensitive; effect on analgesia induced by NT (analgesia induced by NT [5]): insensitive; effect on analgesia induced by NT (analgesia induced by NT [6]): insensitive; intracellular concentration of Ca^2+ response (hNT-R2 [1]): significant response; effect on hypothermia induced by NT [7]: insensitive; inhibition of the binding of NT to the cloned receptor (cloned receptor): inhibits the binding of NT to the cloned receptor; inhibition of the agonist effect of SR142948 (hNT-R2 [8]; CHO 2076.62 (hNT-R2), SR48692 at doses at which there is no agonist effect): antagonized; relative effectiveness at inhibiting the effect of SR142948 (hNT-R2 [8]; inhibition curves, SR48692 versus neurotensin): more effective than neurotensin

**Q.** Which “antagonism of neurotensin mobilization of intracellular calcium ions” value (NT-1R) does the source give for COc1cccc(OC)c1-c1cc(C(=O)NC2(C(=O)O)C3CC4CC(C3)CC2C4)nn1-c1ccc(C(=O)N(C)CCCN(C)C)cc1C(C)C.Cl (centres unmarked) [SR 142948 A, 2-{(5-(2,6-dimethoxyphenyl)-1-(4-(N-(3-dimethylamino-propyl)-N-methylcarbamoyl)-2-isopropylphenyl)-1H-pyrazole-3-carbonyl)amino}adamantane-2-carboxylic acid hydrochloride] here?
**A.** The value was “antagonizes”.

**Q.** And the “effect on hypothermia induced by NT” value [4]?
**A.** Its value is “antagonizes”.

**Q.** And the “effect on analgesia induced by NT” value (analgesia induced by NT [5])?
**A.** Its value is “antagonizes”.

**Q.** And the “antagonism of neurotensin effect: release of acetylcholine” value [9]?
**A.** Its value is “antagonizes”.

**Q.** And the “displacement of [^3 H]-SR 48692” value (type-1 receptor; [13])?
**A.** Its value is “completely displaces”.

**Q.** What about the “displacement of [^125 I]-neurotensin” value (type-1 receptor; [13]) of the same molecule?
**A.** Its value is “completely displaces”.

**Q.** What about the affinity (type-1 receptor; type-1 receptor (Gully et al.)) of the same molecule?
**A.** Its affinity is “of the order of a nanomole”.

**Q.** What about the “effect on analgesia induced by NT” value (analgesia induced by NT [6]) of the same molecule?
**A.** Its value is “antagonizes”.

**Q.** What about the “antagonism of neurotensin effect: rotation” value (rotation in mice) of the same molecule?
**A.** Its value is “antagonizes”.

**Q.** And the “effect on hypothermia induced by NT” value [7]?
**A.** The value was “antagonizes”.

**Q.** And the IC50 (HT29 cells)?
**A.** The IC50 was 3.9 nM.

**Q.** For C[C@@H]1CN([C@H]2CC[C@](C#N)(c3ccc(F)cc3)CC2)CC[C@]1(C(=O)O)c1ccccc1 [levocabastine], which IC50 (rNT-R2 receptor [3]) is on record?
**A.** The IC50 was 10 nM.

**Q.** With “^125 I-neurotensin: ^125 I-[Tyr^3 ]-labelled neurotensin marketed by NEN” as the molecule, how does the “binding capacity (Bmax)” value (rNT-R2 receptor [10]) read?
**A.** Its value is 180,000±3000 sites per cell.

**Q.** And the “binding to untransfected cells or cells transfected with vector alone” value [11]?
**A.** Its value is “did not bind”.

**Q.** For “neuromedin N: ligand related to neurotensin, used as competitor (IPYIL; Neuromedin N; UniProt P30990 144-148, looked up)”, which IC50 (rNT-R2 receptor [3]; [12]) is on record?
**A.** Its IC50 is 5.1 nM.
